We go through 11 compounds from US7956069B2, “Compounds” (AstraZeneca AB, priority 2006, dated 2011).

For this test, the target named is T1, hM5 (human Muscarinic receptor subtype 5) (Homo sapiens, UniProt P08912).
T1 construct: expressed in transfected cells; host or cells: CHO cells (Chinese hamster ovary cells, ATCC)
T1 sequence (P08912 1-532): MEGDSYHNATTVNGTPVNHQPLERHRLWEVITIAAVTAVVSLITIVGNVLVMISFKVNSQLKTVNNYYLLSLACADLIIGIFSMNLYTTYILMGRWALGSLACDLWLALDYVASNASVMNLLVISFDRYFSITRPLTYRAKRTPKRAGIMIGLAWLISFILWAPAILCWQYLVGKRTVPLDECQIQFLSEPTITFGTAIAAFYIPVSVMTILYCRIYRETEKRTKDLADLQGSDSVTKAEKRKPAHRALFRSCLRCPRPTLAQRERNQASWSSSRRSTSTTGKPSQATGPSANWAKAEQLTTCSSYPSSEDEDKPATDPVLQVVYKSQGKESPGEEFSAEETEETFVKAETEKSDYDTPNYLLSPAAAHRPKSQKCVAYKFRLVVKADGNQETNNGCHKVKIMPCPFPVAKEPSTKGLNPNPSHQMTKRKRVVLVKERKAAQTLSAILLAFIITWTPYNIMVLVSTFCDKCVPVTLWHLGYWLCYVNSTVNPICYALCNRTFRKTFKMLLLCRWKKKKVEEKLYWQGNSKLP
The experiment in a line: Human M5 calcium mobilization FLIPR assay. The class given is cell-based. Particulars: CHO cells expressing hM5, Ca2+ release. As to the method: Biological Evaluation Human M1, Rat M1, Human M3 and Human M5 Calcium Mobilization FLIPR™ Assay
The compound activity in the present invention (EC50 or IC50) was measured using a 384 plate-based imaging assay that monitors drug induced intracellular Ca^2+ release in whole cells. Activation of hM1 (human Muscarinic receptor subtype 1, gene bank access NM_000738), rM1 (rat Muscarinic receptor subtype 1, gene bank access NM_080773), hM3 (human Muscarinic receptor subtype 3, gene bank access NM_000740NM_000740) and hM5 (human Muscarinic receptor subtype 5, gene bank access NM_0121258), receptors expressed in CHO cells (Chinese hamster ovary cells, ATCC) was quantified in a Molecular Devices FLIPR II™ instrument as an increase in fluorescent signal. Inhibition of hM3 and hM5 by compounds was determined by the decrease in fluorescent signal in response to 20 nM carbachol activation.
CHO cells were plated in 384-black polylysine coated plate (Costar) at 8000 cells/well/50 μl for 24 hours or 4000 cells/well for 48 hours in a humidified incubator (5% CO2 and 37° C.) in DMEM/F12 medium without selection agent. Prior to the experiment the cell culture medium was removed from the plates by inversion. A loading solution of 30 μl of Hank's balanced salt solution, 10 mM Hepes and 2.5 mM Probenicid at Ph 7.4 (Cat no. 311-520-VL, Wisent) with 2 μM calcium indicator dye (FLUO-3AM, Molecular Probes F14202) was added to each well. Plates were incubated at 37° C. for 60 minutes prior to start the experiment. The incubation was terminated by washing the cells four times in assay buffer, leaving a residual 25 μl buffer per well. Cell plates were then transferred to the FLIPR, ready for compound additions.
The day of experiment, carbachol and compounds were diluted in three-fold concentration range (10 points serial dilution) for addition by FLIPR instrument. For all calcium assays, a baseline reading was taken for 30 seconds followed by the addition of 12.5 μl (25 μl for hM1 and rM1) of compounds, resulting in a total well volume of 37.5 μl (50 μl for hM1 and rM1). Data were collected every 1.6 seconds for 300 seconds. For hM3 and hM5 an additional 12.5 μl of carbachol (20 nM final) was added at 300 seconds. After this addition of carbachol (producing a final volume of 50 μl), the FLIPR continued to collect data every 2 seconds for 240 seconds. The fluorescence emission was read using filter 1 (emission 520-545 nm) by the FLIPR on board CCD camera.
Calcium mobilization output data were calculated as the maximal relative fluorescence unit (RFU) minus the minal value for both compound and agonist reading frame (except for hM1 and rM1 using only the maximal RFU). Data were analyzed using sigmoidal fits of a non-linear curve-fitting program (XLfit version 5.0.6 from ID Business Solutions Limited, Guildford, UK). All EC50 and IC50 values are reported as arithmetic means±standard error of mean of ‘n’ independent experiments.
Take `CCOC(=O)N1CCC(N2CCC(N3C(=O)N[C@H]4CCCC[C@@H]43)CC2)CC1`: the EC50 came to 0.22 µM.
Under `CCOC(=O)N1CC[C@H](N2CCC(N3C(=O)N[C@H]4CCCC[C@@H]43)CC2)C1` stands 3.9 µM; under `COc1ccccc1C(=O)N1CCC(N2CCC(N3C(=O)N[C@@H]4CCCC[C@H]43)CC2)CC1`, above 40 µM; under `CC(C)OC(=O)N1CCC(N2CCC(N3C(=O)N[C@H]4CCCC[C@@H]43)CC2)CC1`, 0.036 µM.
Under `CC(C)OC(=O)N1CCC(N2CCC(N3C(=O)N[C@@H]4CCCC[C@@H]43)CC2)CC1` stands 0.072 µM; under `O=C1CCCN1CCC(=O)N1CCC(N2CCC(N3C(=O)N[C@H]4CCCC[C@@H]43)CC2)CC1`, 1.6 µM; under `O=C(C1CC1)N1CCC(N2CCC(N3C(=O)N[C@@H]4CCCC[C@H]43)CC2)CC1`, above 40 µM.
As for `O=C1CCCN1CCC(=O)N1CCC(N2CCC(N3C(=O)N[C@@H]4CCCC[C@H]43)CC2)CC1`, the EC50 turned out to be 2.4 µM.
For the compound `O=C(C1CCCC1)N1CCC(N2CCC(N3C(=O)N[C@H]4CCCC[C@@H]43)CC2)CC1`, the EC50 was above 40 µM.
`CN1C(=O)N(C2CCN(C3CCN(C(=O)C4CC4)CC3)CC2)[C@H]2CCCC[C@@H]21`: the EC50 is above 40 µM.
Take `CC(C)OC(=O)N1CCC(N2CCC(N3C(=O)C[C@H]4CCCC[C@@H]43)CC2)CC1`: the EC50 is above 40 µM.

What is called EC50 is the concentration at which the effect is half-maximal.
